Assay results: patent US20090018134A1, “Compounds - 945” (AstraZeneca AB, priority 2007, published 2009)

Molecular target: T1, mTOR (Homo sapiens, UniProt P42345)
T1 construct: FLAG; made in house
Assay: In Vitro mTOR Kinase Assay (Echo), Test (a)(ii)
Format: biochemical
Settings: table of enzyme assay Test (a)(ii); read-out: Test (a)(ii) IC50
How it was run: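 Inhibition of truncated mTOR (1362-2549, FLAG-tagged, purified from stably transfected HEK293 cells) is measured as reduced AlphaScreen signal from a phospho-T389-recognising antibody bound to the biotinylated peptide product. Kinase incubation lasts 2 hours at room temperature. Potency is given as IC50.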

T1 sequence (P42345 1362-2549): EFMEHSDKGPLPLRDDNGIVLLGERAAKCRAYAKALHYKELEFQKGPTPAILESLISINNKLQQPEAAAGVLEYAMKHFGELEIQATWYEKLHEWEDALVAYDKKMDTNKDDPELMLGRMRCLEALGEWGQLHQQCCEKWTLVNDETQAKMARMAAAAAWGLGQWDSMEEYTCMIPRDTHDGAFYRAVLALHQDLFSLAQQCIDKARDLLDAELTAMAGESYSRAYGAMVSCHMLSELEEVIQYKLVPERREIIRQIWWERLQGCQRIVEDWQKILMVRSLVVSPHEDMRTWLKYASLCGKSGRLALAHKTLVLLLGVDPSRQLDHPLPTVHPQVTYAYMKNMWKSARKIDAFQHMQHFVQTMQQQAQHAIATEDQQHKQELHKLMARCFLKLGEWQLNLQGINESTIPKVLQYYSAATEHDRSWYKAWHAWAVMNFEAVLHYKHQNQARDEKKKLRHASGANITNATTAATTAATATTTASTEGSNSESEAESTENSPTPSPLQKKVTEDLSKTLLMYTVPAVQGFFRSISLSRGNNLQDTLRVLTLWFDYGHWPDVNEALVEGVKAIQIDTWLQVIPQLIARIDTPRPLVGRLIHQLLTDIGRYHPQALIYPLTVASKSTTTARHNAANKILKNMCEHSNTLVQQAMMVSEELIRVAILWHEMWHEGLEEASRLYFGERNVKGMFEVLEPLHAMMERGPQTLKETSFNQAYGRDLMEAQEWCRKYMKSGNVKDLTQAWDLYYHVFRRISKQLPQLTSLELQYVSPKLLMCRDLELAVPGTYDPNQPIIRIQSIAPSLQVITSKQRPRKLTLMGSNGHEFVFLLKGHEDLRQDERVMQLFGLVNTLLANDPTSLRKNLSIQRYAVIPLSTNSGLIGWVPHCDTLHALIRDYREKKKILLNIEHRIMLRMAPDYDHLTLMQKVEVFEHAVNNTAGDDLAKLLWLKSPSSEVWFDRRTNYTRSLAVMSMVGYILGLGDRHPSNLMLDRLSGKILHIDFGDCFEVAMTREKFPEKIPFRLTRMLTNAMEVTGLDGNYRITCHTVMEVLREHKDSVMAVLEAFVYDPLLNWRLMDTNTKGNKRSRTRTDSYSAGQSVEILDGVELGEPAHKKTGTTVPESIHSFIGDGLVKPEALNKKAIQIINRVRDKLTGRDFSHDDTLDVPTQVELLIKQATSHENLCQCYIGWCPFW

IC50 [nM]	Structure (SMILES)
172	CN(C)CCNC(=O)Nc1ccc(-c2nc(N3CCOCC3)cc(C3(S(=O)(=O)C4CC4)CCC3)n2)cc1 [Example 13t, 1-[4-[4-(1-cyclopropylsulfonylcyclobutyl)-6-morpholin-4-ylpyrimidin-2-yl]phenyl]-3-(2-dimethylaminoethyl)urea]
4.77	O=C(NCCCO)Nc1ccc(-c2nc(N3CCOCC3)cc(C3(S(=O)(=O)C4CC4)CCC3)n2)cc1 [Example 13u, 1-[4-[4-(1-cyclopropylsulfonylcyclobutyl)-6-morpholin-4-ylpyrimidin-2-yl]phenyl]-3-(3-hydroxypropyl)urea]
46.5	C[C@H]1COCCN1c1cc(C2(S(=O)(=O)C3CC3)CC2)nc(-c2ccc(NC(=O)NC3CC3)nc2)n1 [Example 14, 3-Cyclopropyl-1-[5-[4-(1-cyclopropylsulfonylcyclopropyl)-6-[(3S)-3-methylmorpholin-4-yl]pyrimidin-2-yl]pyridin-2-yl]urea]
13.6	CNC(=O)Nc1ccc(-c2nc(N3CCOC[C@@H]3C)cc(C3(S(=O)(=O)C4CC4)CC3)n2)cn1 [Example 14a, 1-[5-[4-(1-cyclopropylsulfonylcyclopropyl)-6-[(3S)-3-methylmorpholin-4-yl]pyrimidin-2-yl]pyridin-2-yl]-3-methylurea]
18.6	C[C@H]1COCCN1c1cc(C2(S(=O)(=O)c3ccc(NCCO)cc3)CC2)nc(-c2cnc(NC(=O)NCCO)nc2)n1 [Example 14aa, 3-(2-hydroxyethyl)-1-[5-[4-[1-[4-(2-hydroxyethylamino)phenyl]sulf-onylcyclopropyl]-6-[(3S)-3-methylmorpholin-4-yl]pyrimidin-2-yl]pyrimidin-2-yl]urea]
1390	C[C@H]1COCCN1c1cc(C2(S(=O)(=O)C3CC3)CC2)nc(-c2ccc(NC(=O)NCCN(C)C)nc2)n1 [Example 14b, 1-[5-[4-(1-cyclopropylsulfonylcyclopropyl)-6-[(3S)-3-methylmorpholin-4-yl]pyrimidin-2-yl]pyridin-2-yl]-3-(2-dimethylaminoethyl)urea]
40.1	C[C@H]1COCCN1c1cc(C2(S(=O)(=O)C3CC3)CC2)nc(-c2ccc(NC(=O)NCCO)nc2)n1 [Example 14c, 1-[5-[4-(1-cyclopropylsulfonylcyclopropyl)-6-[(3S)-3-methylmorpholin-4-yl]pyrimidin-2-yl]pyridin-2-yl]-3-(2-hydroxyethyl)urea]
14.3	C[C@H]1COCCN1c1cc(C2(S(=O)(=O)C3CC3)CC2)nc(-c2ccc(NC(=O)Nc3cnn(C)c3)nc2)n1 [Example 14d, 1-[5-[4-(1-cyclopropylsulfonylcyclopropyl)-6-[(3S)-3-methylmorpholin-4-yl]pyrimidin-2-yl]pyridin-2-yl]-3-(1-methylpyrazol-4-yl)urea]
110	C[C@H]1COCCN1c1cc(C2(S(=O)(=O)c3ccc(F)cc3)CC2)nc(-c2cnc(NC(=O)NC3CC3)nc2)n1 [Example 14e, 3-cyclopropyl-1-[5-[4-[1-(4-fluorophenyl)sulfonylcyclopro-pyl]-6-[(3S)-3-methylmorpholin-4-yl]pyrimidin-2-yl]pyrimidin-2-yl]urea]
189	CNC(=O)Nc1ncc(-c2nc(N3CCOC[C@@H]3C)cc(C3(S(=O)(=O)c4ccc(F)cc4)CC3)n2)cn1 [Example 14f, 1-[5-[4-[1-(4-fluorophenyl)sulfonylcyclopro-pyl]-6-[(3S)-3-methylmorpholin-4-yl]pyrimidin-2-yl]pyrimidin-2-yl]-3-methylurea]
85.7	C[C@H]1COCCN1c1cc(C2(S(=O)(=O)c3ccc(F)cc3)CC2)nc(-c2cnc(NC(=O)NCCO)nc2)n1 [Example 14g, 1-[5-[4-[1-(4-fluorophenyl)sulfonylcyclopro-pyl]-6-[(3S)-3-methylmorpholin-4-yl]pyrimidin-2-yl]pyrimidin-2-yl]-3-(2-hydroxyethyl)urea]
140	C[C@H]1COCCN1c1cc(C2(S(=O)(=O)c3ccc(F)cc3)CC2)nc(-c2cnc(NC(=O)Nc3cnn(C)c3)nc2)n1 [Example 14h, 1-[5-[4-[1-(4-fluorophenyl)sulfonylcyclopro-pyl]-6-[(3S)-3-methylmorpholin-4-yl]pyrimidin-2-yl]pyrimidin-2-yl]-3-(1-methylpyrazol-4-yl)urea]
33.9	C[C@H]1COCCN1c1cc(C2(S(=O)(=O)c3ccc(F)cc3)CC2)nc(-c2ccc(NC(=O)NC3CC3)nc2)n1 [Example 14i, 3-cyclopropyl-1-[5-[4-[1-(4-fluorophenyl)sulfonylcyclopro-pyl]-6-[(3S)-3-methylmorpholin-4-yl]pyrimidin-2-yl]pyridin-2-yl]urea]
12.9	CNC(=O)Nc1ccc(-c2nc(N3CCOC[C@@H]3C)cc(C3(S(=O)(=O)c4ccc(F)cc4)CC3)n2)cn1 [Example 14j, 1-[5-[4-[1-(4-fluorophenyl)sulfonylcyclopro-pyl]-6-[(3S)-3-methylmorpholin-4-yl]pyrimidin-2-yl]pyridin-2-yl]-3-methylurea]
275	C[C@H]1COCCN1c1cc(C2(S(=O)(=O)c3ccc(F)cc3)CC2)nc(-c2ccc(NC(=O)NCCN(C)C)nc2)n1 [Example 14k, 3-(2-dimethylaminoethyl)-1-[5-[4-[1-(4-fluorophenyl)sulfonylcyclopro-pyl]-6-[(3S)-3-methylmorpholin-4-yl]pyrimidin-2-yl]pyridin-2-yl]urea]
13.7	C[C@H]1COCCN1c1cc(C2(S(=O)(=O)c3ccc(F)cc3)CC2)nc(-c2ccc(NC(=O)NCCO)nc2)n1 [Example 14l, 1-[5-[4-[1-(4-fluorophenyl)sulfonylcyclopro-pyl]-6-[(3S)-3-methylmorpholin-4-yl]pyrimidin-2-yl]pyridin-2-yl]-3-(2-hydroxyethyl)urea]
14.3	C[C@H]1COCCN1c1cc(C2(S(=O)(=O)c3ccc(F)cc3)CC2)nc(-c2ccc(NC(=O)Nc3cnn(C)c3)nc2)n1 [Example 14m, 1-[5-[4-[1-(4-fluorophenyl)sulfonylcyclopro-pyl]-6-[(3S)-3-methylmorpholin-4-yl]pyrimidin-2-yl]pyridin-2-yl]-3-(1-methylpyrazol-4-yl)urea]
36.3	C[C@H]1COCCN1c1cc(C2(S(C)(=O)=O)CCCC2)nc(-c2ccc(NC(=O)NC3CC3)nc2)n1 [Example 14n, 3-cyclopropyl-1-[5-[4-[(3S)-3-methylmorpholin-4-yl]-6-(1-methylsulfonylcyclopentyl)pyri-midin-2-yl]pyridin-2-yl]urea]
21.7	CNC(=O)Nc1ccc(-c2nc(N3CCOC[C@@H]3C)cc(C3(S(C)(=O)=O)CCCC3)n2)cn1 [Example 14o, 3-methyl-1-[5-[4-[(3S)-3-methylmorpholin-4-yl]-6-(1-methylsulfonylcyclopentyl)pyri-midin-2-yl]pyridin-2-yl]urea]
537	C[C@H]1COCCN1c1cc(C2(S(C)(=O)=O)CCCC2)nc(-c2ccc(NC(=O)NCCN(C)C)nc2)n1 [Example 14p, 3-(2-dimethylaminoethyl)-1-[5-[4-[(3S)-3-methylmorpholin-4-yl]-6-(1-methylsulfonylcyclopentyl)pyri-midin-2-yl]pyridin-2-yl]urea]
26.5	C[C@H]1COCCN1c1cc(C2(S(C)(=O)=O)CCCC2)nc(-c2ccc(NC(=O)NCCO)nc2)n1 [Example 14q, 3-(2-hydroxyethyl)-1-[5-[4-[(3S)-3-methylmorpholin-4-yl]-6-(1-methylsulfonylcyclopentyl)pyri-midin-2-yl]pyridin-2-yl]urea]
10.3	C[C@H]1COCCN1c1cc(C2(S(C)(=O)=O)CCCC2)nc(-c2ccc(NC(=O)Nc3cnn(C)c3)nc2)n1 [Example 14r, 1-[5-[4-[(3S)-3-methylmorpholin-4-yl]-6-(1-methylsulfonylcyclopentyl)pyri-midin-2-yl]pyridin-2-yl]-3-(1-methylpyrazol-4-yl)urea]
122	C[C@H]1COCCN1c1cc(C2(S(C)(=O)=O)CCCC2)nc(-c2cnc(NC(=O)NC3CC3)nc2)n1 [Example 14s, 3-cyclopropyl-1-[5-[4-[(3S)-3-methylmorpholin-4-yl]-6-(1-methylsulfonylcyclopentyl)pyri-midin-2-yl]pyrimidin-2-yl]urea]
197	CNC(=O)Nc1ncc(-c2nc(N3CCOC[C@@H]3C)cc(C3(S(C)(=O)=O)CCCC3)n2)cn1 [Example 14t, 3-methyl-1-[5-[4-[(3S)-3-methylmorpholin-4-yl]-6-(1-methylsulfonylcyclopentyl)pyri-midin-2-yl]pyrimidin-2-yl]urea]
123	C[C@H]1COCCN1c1cc(C2(S(C)(=O)=O)CCCC2)nc(-c2cnc(NC(=O)NCCO)nc2)n1 [Example 14u, 3-(2-hydroxyethyl)-1-[5-[4-[(3S)-3-methylmorpholin-4-yl]-6-(1-methylsulfonylcyclopentyl)pyri-midin-2-yl]pyrimidin-2-yl]urea]
82.3	C[C@H]1COCCN1c1cc(C2(S(C)(=O)=O)CCCC2)nc(-c2cnc(NC(=O)Nc3cnn(C)c3)nc2)n1 [Example 14v, 1-[5-[4-[(3S)-3-methylmorpholin-4-yl]-6-(1-methylsulfonylcyclopentyl)pyri-midin-2-yl]pyrimidin-2-yl]-3-(1-methylpyrazol-4-yl)urea]
208	C[C@H]1COCCN1c1cc(C2(S(=O)(=O)C3CC3)CC2)nc(-c2cnc(NC(=O)NC3CC3)nc2)n1 [Example 14w, 3-cyclopropyl-1-[5-[4-(1-cyclopropylsulfonylcyclopropyl)-6-[(3S)-3-methylmorpholin-4-yl]pyrimidin-2-yl]pyrimidin-2-yl]urea]
630	CNC(=O)Nc1ncc(-c2nc(N3CCOC[C@@H]3C)cc(C3(S(=O)(=O)C4CC4)CC3)n2)cn1 [Example 14x, 1-[5-[4-(1-cyclopropylsulfonylcyclopropyl)-6-[(3S)-3-methylmorpholin-4-yl]pyrimidin-2-yl]pyrimidin-2-yl]-3-methylurea]
152	C[C@H]1COCCN1c1cc(C2(S(=O)(=O)C3CC3)CC2)nc(-c2cnc(NC(=O)NCCO)nc2)n1 [Example 14y, 1-[5-[4-(1-cyclopropylsulfonylcyclopropyl)-6-[(3S)-3-methylmorpholin-4-yl]pyrimidin-2-yl]pyrimidin-2-yl]-3-(2-hydroxyethyl)urea]
